This data set in a line: Plasma α-tocopherol levels in mice fed with α-tocopherol (HPLC). The note with it: fed α-tocopherol 82 μmol/kg from 4 weeks of age, time course FIG. 7. In kind it is in vivo, mouse. The method, then: Each of the homozygous α-TTP-deficient, heterozygous α-TTP-deficient and wild-type mice was fed with α-tocopherol at a concentration of 82 μmol/kg from 4 weeks of age. All mice were then assayed for their plasma α-tocopherol levels according to the method of Kim, H. S. et al. (Free Rad. Res. 28, 87–92, 1998). More specifically, 50 μl of mouse plasma collected using heparin was diluted with 950 Pl of PBS, mixed with 1 ml of 6% pyrogarol in EtOH, and then allowed to stand at 70° C. for 2 minutes. After addition of 60% KOH (0.2 ml), the mixture was saponified at 70° C. for 30 minutes, vortexed with 5 ml of n-hexane and 2.5 ml of H2O, and then centrifuged to collect the n-hexane layer (4 ml). The layer was evaporated and dissolved in […] of ethanol, followed by HPLC analysis. HPLC was performed under the following conditions: column: IRIKA RP18 (250×4 mm), mobile phase: MeOH/H2O/NaClO4 (1000/2/7, v/v/w), detection: IRIKA Amperometric E-520 detector. Tocol was used as an internal standard.

The results in this text go back to patent US6982362B1, “α-tocopherol transport protein knockout animal” (priority 1999, dated 2006).

Regarding `Cc1c(C)c2c(c(C)c1O)CC[C@@](C)(CCC[C@H](C)CCC[C@H](C)CCCC(C)C)O2` [α-tocopherol], for the setting “heterozygous α-TTP-deficient mice”, the “plasma α-tocopherol level as compared with the wild-type mice” value was “about one-half”. For the setting “homozygous α-TTP-deficient mice”, the “plasma α-tocopherol level” value was “under the detection limit”.
